The test system of this series is CCRIS mutagenicity, Ames/micronucleus/aberration tests. Kind of series: CCRIS mutagenicity studies.

Active and inactive are the calls of the source. The rule behind the calls is not given here.

The results in this text go back to PubChem BioAssay AID1259407 (Chemical Carcinogenesis Research Information System (CCRIS), 2018).

In the case of `O=C/C=C/c1ccc([N+](=O)[O-])cc1`, the mutagenic call reads like this: (Test System: AMES SALMONELLA TYPHIMURIUM, Strain/Indicator: TA98, Metabolic Activation: HAMSTER, LIVER, S-9, AROCLOR 1254, Method: STANDARD PLATE) “active; positive”; (Test System: AMES SALMONELLA TYPHIMURIUM, Strain/Indicator: TA98, Metabolic Activation: NONE, Method: STANDARD PLATE) “active; positive”; (Test System: AMES SALMONELLA TYPHIMURIUM, Strain/Indicator: TA98, Metabolic Activation: RAT, LIVER, S-9, AROCLOR 1254, Method: STANDARD PLATE) “active; positive”; (Test System: AMES SALMONELLA TYPHIMURIUM, Strain/Indicator: TA100(1,8-DNP6), Metabolic Activation: NONE, Method: PREINCUBATION) “active; positive”; (Test System: AMES SALMONELLA TYPHIMURIUM, Strain/Indicator: TA100(1,8-DNP6), Metabolic Activation: RAT, LIVER, S-9, AROCLOR 1254, Method: PREINCUBATION) “active; positive”; (Test System: AMES SALMONELLA TYPHIMURIUM, Strain/Indicator: TA100(NR), Metabolic Activation: NONE, Method: PREINCUBATION) “inactive; negative”. Also, the mutagenic call by setting is: (Test System: AMES SALMONELLA TYPHIMURIUM, Strain/Indicator: TA100(NR), Metabolic Activation: RAT, LIVER, S-9, AROCLOR 1254, Method: PREINCUBATION) “active; positive”; (Test System: AMES SALMONELLA TYPHIMURIUM, Strain/Indicator: TA100, Metabolic Activation: HAMSTER, LIVER, S-9, AROCLOR 1254, Method: STANDARD PLATE) “active; positive”; (Test System: AMES SALMONELLA TYPHIMURIUM, Strain/Indicator: TA100, Metabolic Activation: NONE, Method: PREINCUBATION) “active; positive”; (Test System: AMES SALMONELLA TYPHIMURIUM, Strain/Indicator: TA100, Metabolic Activation: NONE, Method: STANDARD PLATE) “active; positive”; (Test System: AMES SALMONELLA TYPHIMURIUM, Strain/Indicator: TA100, Metabolic Activation: RAT, LIVER, S-9, AROCLOR 1254, Method: PREINCUBATION) “active; positive”; (Test System: AMES SALMONELLA TYPHIMURIUM, Strain/Indicator: TA100, Metabolic Activation: RAT, LIVER, S-9, AROCLOR 1254, Method: STANDARD PLATE) “active; positive”. In addition, the mutagenic call (Test System: MOUSE LYMPHOMA, Strain/Indicator: L5178Y (TK+/TK-), Metabolic Activation: NONE, Method: SUSPENSION/PLATE) was “active; positive. reevaluation of results: positive” and the mutagenic call (Test System: MOUSE LYMPHOMA, Strain/Indicator: L5178Y (TK+/TK-), Metabolic Activation: RAT, LIVER, S-9, AROCLOR 1254, Method: SUSPENSION/PLATE) is “inactive; negative. reevaluation of results: negative”.
